# In ChEMBL document CHEMBL1143791, “Synthesis of isonicotinoylhydrazones from anacardic acid and their in vitro activity against Mycobacterium smegmatis” (2007):
# Calls of active or inactive are those of the source. The calls are words filed in the database; no cut-off is given here.
# Columns and labels:
# [1] = test system: Mycolicibacterium smegmatis; assay: Antimicrobial activity against Mycobacterium smegmatis str. MC2 155 after 24 hrs at 100 ug/ml by broth dilution method; type: functional, organism-based
# [2] = test system: Mycolicibacterium smegmatis; assay: Antimicrobial activity against Mycobacterium smegmatis str. MC2 155 after 24 hrs by broth dilution method; type: functional; conditions: str. MC2 155, 24 h
# [3] = test system: Mycolicibacterium smegmatis; assay: Antimicrobial activity against Mycobacterium smegmatis str. MC2 155 after 24 hrs at 1 ug/ml by broth dilution method; type: functional
# [4] = test system: Mycobacterium tuberculosis; assay: Antimicrobial activity against Mycobacterium tuberculosis H37Rv at 0.5 ug/ml after 6 weeks; type: functional, organism-based
# [5] = test system: Mycobacterium tuberculosis; assay: Antimicrobial activity against Mycobacterium tuberculosis H37Rv at 10 ug/ml after 6 weeks; type: functional, organism-based
# [6] = test system: Mycolicibacterium smegmatis; assay: Antimicrobial activity against Mycobacterium smegmatis mc2 155 after 24 hrs at 0.5 ug/ml by broth dilution method; type: functional, organism-based; conditions: str. MC2 155
SMILES,Activity [1],MIC [2],Activity [3],Activity [4],Activity [5],Activity [6]
CCCCCCCCCCCCCCCc1c([N+](=O)[O-])ccc(O)c1C(=O)O,inactive,,,,,
C=CC/C=C\C/C=C\CCCCCCCc1cccc(O)c1C(=O)O,inactive,,,,,
NNC(=O)c1ccncc1 [ISONIAZID],,1.5 µg/mL,36%,,,
O=C(N/N=C/CCCCCCCc1c([N+](=O)[O-])ccc(O)c1C(=O)O)c1ccncc1,,5 µg/mL,,inactive,Active,inactive
O=C(N/N=C/CCCCCCCc1cccc(O)c1C(=O)O)c1ccncc1,,4 µg/mL,,inactive,Active,inactive
